Results: patent publication US20200392116A1, “SUBSTITUTED HETEROCYCLES AS c-MYC TARGETING AGENTS” (NORTHWESTERN UNIVERSITY, priority 2019, published 2020)

Assay: Potency code of Table 2 (assay not stated)
For `CN/N=C(/C)c1cccc(-c2c(OCc3ccc(Cl)cc3)ccc(-c3cc(C(F)(F)F)[nH]n3)c2O)c1` [NUCC-0198403], the Potency code was “+ (>40 +)”.
In the case of `CCc1ccc(Oc2c[nH]nc2-c2ccc(OCc3cnn(C)c3)cc2O)cc1` [NUCC-0176246], the Potency code is reported as “+ (>40 +)”.
For `Oc1cc(OCc2ccc(Cl)cc2)ccc1-c1n[nH]cc1-c1cccc(Cl)c1` [NUCC-0196350], the Potency code was “+++ (10-30 +++)”.
In the case of `Cn1nc(-c2ccc(OCc3ccc(Cl)cc3)c(-c3ccc(Cl)c(C(F)(F)F)c3)c2O)cc1C(F)(F)F` [NUCC-0200733], the Potency code is reported as “+ (>40 +)”.
In the case of `CCc1ccc(Oc2c(-c3ccc(OCc4ccc(Cl)c(Cl)c4)cc3O)nn(C)c2C(F)(F)F)cc1` [NUCC-0196354], the Potency code is reported as “+ (>40 +)”.
For `NCCOc1ccc(-c2cc(C(F)(F)F)n[nH]2)c(O)c1-c1ccc(Cl)c(C(F)(F)F)c1` [NUCC-0201640], the Potency code was “+ (>40 +)”.
For `CCc1ccc(Oc2c[nH]nc2-c2ccc(OCCc3ccc(F)cc3)cc2O)cc1` [NUCC-0176258], the Potency code was “+ (>40 +)”.
With `Cc1ccc(C)c(Oc2cn(C)nc2-c2ccc(OCc3cccc(Cl)c3)cc2O)c1` [NUCC-0196287] the Potency code was “+ (>40 +)”.
In the case of `Cn1nc(C(F)(F)F)cc1-c1ccc(OCCCN)c(-c2ccc(Cl)c(C(F)(F)F)c2)c1O` [NUCC-0201642], the Potency code is reported as “+ (>40 +)”.
With `Oc1cc(OCc2ccc(Cl)cc2)ccc1-c1n[nH]cc1Oc1ccc(Cl)cc1` [NUCC-0196303] the Potency code was “+ (>40 +)”.
In the case of `CCc1ccc(Oc2c[nH]nc2-c2ccc(OCc3ccncc3)cc2O)cc1` [NUCC-0176254], the Potency code is reported as “+ (>40 +)”.
In the case of `Cn1cc(-c2cc(C(F)(F)F)cc(C(F)(F)F)c2)c(-c2ccc(OCc3ccc(Cl)cc3)cc2O)n1` [NUCC-0198319], the Potency code is reported as “+ (>40 +)”.
For `Cc1ccc(C)c(Oc2c[nH]nc2-c2ccc(OCc3cccc(Cl)c3)cc2O)c1` [NUCC-0196286], the Potency code was “+ (>40 +)”.
In the case of `Cn1cc(-c2c[nH]nc2-c2ccc(OCc3ccc(Cl)cc3)cc2O)cn1` [NUCC-0198361], the Potency code is reported as “+ (>40 +)”.
For `Cn1nc(-c2ccc(OCc3ccc(Cl)cc3)c(-c3ccc(C(F)(F)F)c(Cl)c3)c2O)cc1C(F)(F)F` [NUCC-0200729], the Potency code was “+ (>40 +)”.
In the case of `Oc1ccc(-c2cc(C(F)(F)F)[nH]n2)c(O)c1-c1cc(C(F)(F)F)cc(C(F)(F)F)c1` [NUCC-0200495], the Potency code is reported as “++++ (<10 ++++)”.
For `Cn1nc(-c2ccc(NCc3ccc(Cl)cc3)cc2O)cc1C(F)(F)F` [NUCC-0200494], the Potency code was “+ (>40 +)”.
In the case of `COc1cccc(-c2c(-c3ccc(OCc4ccc(Cl)cc4)cc3O)n[nH]c2C)c1` [NUCC-0198312], the Potency code is reported as “+ (>40 +)”.
In the case of `Cn1nc(C(F)(F)F)cc1-c1cnc(OCc2ccc(Cl)cc2)cn1` [NUCC-0200692], the Potency code is reported as “+ (>40 +)”.
With `Cn1nc(C(F)(F)F)cc1-c1ccc(OCCCNC(=O)COCCOCCOCCn2cc(COc3cccc4c3C(=O)N(C3CCC(=O)NC3=O)C4=O)nn2)c(-c2ccc(Cl)c(C(F)(F)F)c2)c1O` (stereo not drawn) [NUCC-0201702] the Potency code was “+ (>40 +)”.
For `Oc1c(-c2cc(C(F)(F)F)n[nH]2)ccc(OCc2ccc(Cl)cc2)c1-c1cncc(F)c1` [NUCC-0201040], the Potency code was “+++ (10-30 +++)”.
In the case of `Cc1[nH]nc(-c2ccc(OCc3ccc(Cl)cc3)cc2O)c1Oc1ccccc1` [NUCC-0176253], the Potency code is reported as “+ (>40 +)”.
With `Cn1nc(C(F)(F)F)cc1-c1ccc(OCc2ccc(C#N)cc2)c(-c2ccc(Cl)c(C(F)(F)F)c2)c1O` [NUCC-0201913] the Potency code was “+ (>40 +)”.
For `Oc1cc(OCc2ccc(Cl)cc2)ccc1-c1n[nH]c(C(F)(F)F)c1Oc1cccc(F)c1` [NUCC-0196301], the Potency code was “+ (>40 +)”.
In the case of `Cn1cc(-c2ccc(OCc3ccc(Cl)cc3)cc2F)c(C(F)(F)F)n1` [NUCC-0200743], the Potency code is reported as “+ (>40 +)”.
For `Oc1ccccc1C1=NNC(c2ccccc2)C1` (stereo not drawn) [NUCC-0200685], the Potency code was “+ (>40 +)”.
For `Cc1cc(C)c(-c2cn(C)nc2-c2ccc(OCc3ccc(Cl)cc3)cc2O)c(C)c1` [NUCC-0198360], the Potency code was “+ (>40 +)”.
For `Oc1cc(Nc2ccc(Cl)c(Cl)c2)ccc1-c1cc(C(F)(F)F)[nH]n1` [NUCC-0200721], the Potency code was “++++ (<10 ++++)”.
In the case of `CN/N=C(\C)c1cccc(-c2c(OCc3ccc(Cl)cc3)ccc(-c3cc(C(F)(F)F)nn3C)c2O)c1` [NUCC-0198404], the Potency code is reported as “+ (>40 +)”.
In the case of `Cn1nc(-c2ccc(OCc3ccc(Cl)cc3)c(-c3cncc(C(F)(F)F)c3)c2O)cc1C(F)(F)F` [NUCC-0201631], the Potency code is reported as “+ (>40 +)”.
For `Cn1nc(-c2ccc(OCCCN)c(-c3ccc(Cl)c(C(F)(F)F)c3)c2O)cc1C(F)(F)F` [NUCC-0201643], the Potency code was “+ (>40 +)”.
For `Cn1nc(C(F)(F)F)cc1-c1ccc(OCc2ccc(Cl)cc2)cc1Cl` [NUCC-0200744], the Potency code was “+ (>40 +)”.
For `Oc1c(-c2cc(C(F)(F)F)[nH]n2)ccc(OCc2ccc(Cl)cc2)c1-c1cc(C(F)(F)F)cc(C(F)(F)F)c1` [NUCC-0196362], the Potency code was “++ (30-40 ++)”.
For `Cc1ccc(C)c(Oc2cn(C)nc2-c2ccc(OCc3ccc(Cl)cc3)cc2O)c1` [NUCC-0196285], the Potency code was “+ (>40 +)”.
In the case of `CN1CCN(c2ccc(-c3cc(C(F)(F)F)n(C)n3)c(O)c2)CC1` [NUCC-0200568], the Potency code is reported as “+ (>40 +)”.
For `CCc1ccc(Oc2c(-c3ccc(Nc4ccc(Cl)cc4)cc3O)n[nH]c2C(F)(F)F)cc1` [NUCC-0200680], the Potency code was “+ (>40 +)”.
In the case of `CCCCOc1ccc(-c2cc(C(F)(F)F)nn2C)c(O)c1-c1cncc(C#N)c1` [NUCC-0201638], the Potency code is reported as “+ (>40 +)”.
For `COc1cccc(-c2c(C)nn(C)c2-c2ccc(OCc3ccc(Cl)cc3)cc2O)c1` [NUCC-0198313], the Potency code was “+ (>40 +)”.
In the case of `Cn1ncc(-c2ccoc2)c1-c1ccc(OCc2ccc(Cl)cc2)cc1O` [NUCC-0198323], the Potency code is reported as “+ (>40 +)”.
In the case of `Cn1nc(-c2ccc(OCc3ccc(Cl)cc3)c(-c3cccc(C(F)(F)F)c3)c2O)cc1C(F)(F)F` [NUCC-0200731], the Potency code is reported as “+ (>40 +)”.
For `Cn1nc(-c2ccc(OCc3ccc([N+](=O)[O-])cc3)c(-c3cc(C(F)(F)F)cc(C(F)(F)F)c3)c2O)cc1C(F)(F)F` [NUCC-0201649], the Potency code was “+ (>40 +)”.
In the case of `Oc1cc(OCc2ccc(Cl)cc2)ccc1-c1cc(C(F)(F)F)[nH]n1` [NUCC-0196313], the Potency code is reported as “++++ (<10 ++++)”.
In the case of `Cn1nc(C(F)(F)F)c(-c2ccccc2)c1-c1ccc(OCc2ccc(Cl)cc2)cc1O` [NUCC-0198296], the Potency code is reported as “+ (>40 +)”.
For `Oc1ccc(OCc2ccc(Cl)cc2)cc1-c1[nH]nc(C(F)(F)F)c1-c1ccccc1Cl` [NUCC-0200576], the Potency code was “++++ (<10 ++++)”.
In the case of `Cn1nc(C(F)(F)F)cc1-c1ccc(OCCCNC(=O)OC(C)(C)C)c(-c2cncc(C(F)(F)F)c2)c1O` [NUCC-0201655], the Potency code is reported as “+ (>40 +)”.
With `COc1ccccc1-c1cn(C)nc1-c1ccc(OCc2ccc(Cl)cc2)cc1O` [NUCC-0198358] the Potency code was “+ (>40 +)”.
With `Cn1cc(-c2ccccc2)c(-c2ccc(OCc3ccc(Cl)cc3)cc2O)n1` [NUCC-0198294] the Potency code was “+ (>40 +)”.
With `CCCCCCOc1ccc(-c2cc(C(F)(F)F)n[nH]2)c(O)c1-c1cncc(C#N)c1` [NUCC-0201194] the Potency code was “+ (>40 +)”.
For `Cn1nc(-c2ccc(OCCc3ccc(Cl)cc3)c(-c3cc(C(F)(F)F)cc(C(F)(F)F)c3)c2O)cc1C(F)(F)F` [NUCC-0201026], the Potency code was “+ (>40 +)”.
With `Cn1nc(-c2ccc(OCc3ccc(Cl)cc3)c(-c3ccc(F)c(C(F)(F)F)c3)c2O)cc1C(F)(F)F` [NUCC-0200736] the Potency code was “+ (>40 +)”.
In the case of `Oc1ccc(OCc2ccc(Cl)cc2)cc1-c1cc(C(F)(F)F)n[nH]1` [NUCC-0200573], the Potency code is reported as “+ (>40 +)”.
